# Laboratory results taken from patent US8404728B2 (priority 2009, dated 2013).
# Structures can show the parent of a compound that is named as a salt. Where two headings read alike, the source gives them in different places.
# Experiments:
# BoNTAe = BoNTAe (Clostridium botulinum, UniProt P0DPI0); assay: biochemical; settings: for inhibition at 1 µM: read-out: % inhibition of BoNTAe; for inhibition at 20 µM: inhibitor concentration 20 μM
# [1] = target: botulinum neurotoxin serotype A (Clostridium botulinum, UniProt P0DPI0); parameters: species or system Balb/c mice; settings: mouse, in vivo, ip
# Chain of botulinum neurotoxin serotype A (P0DPI0 whole entry, looked up): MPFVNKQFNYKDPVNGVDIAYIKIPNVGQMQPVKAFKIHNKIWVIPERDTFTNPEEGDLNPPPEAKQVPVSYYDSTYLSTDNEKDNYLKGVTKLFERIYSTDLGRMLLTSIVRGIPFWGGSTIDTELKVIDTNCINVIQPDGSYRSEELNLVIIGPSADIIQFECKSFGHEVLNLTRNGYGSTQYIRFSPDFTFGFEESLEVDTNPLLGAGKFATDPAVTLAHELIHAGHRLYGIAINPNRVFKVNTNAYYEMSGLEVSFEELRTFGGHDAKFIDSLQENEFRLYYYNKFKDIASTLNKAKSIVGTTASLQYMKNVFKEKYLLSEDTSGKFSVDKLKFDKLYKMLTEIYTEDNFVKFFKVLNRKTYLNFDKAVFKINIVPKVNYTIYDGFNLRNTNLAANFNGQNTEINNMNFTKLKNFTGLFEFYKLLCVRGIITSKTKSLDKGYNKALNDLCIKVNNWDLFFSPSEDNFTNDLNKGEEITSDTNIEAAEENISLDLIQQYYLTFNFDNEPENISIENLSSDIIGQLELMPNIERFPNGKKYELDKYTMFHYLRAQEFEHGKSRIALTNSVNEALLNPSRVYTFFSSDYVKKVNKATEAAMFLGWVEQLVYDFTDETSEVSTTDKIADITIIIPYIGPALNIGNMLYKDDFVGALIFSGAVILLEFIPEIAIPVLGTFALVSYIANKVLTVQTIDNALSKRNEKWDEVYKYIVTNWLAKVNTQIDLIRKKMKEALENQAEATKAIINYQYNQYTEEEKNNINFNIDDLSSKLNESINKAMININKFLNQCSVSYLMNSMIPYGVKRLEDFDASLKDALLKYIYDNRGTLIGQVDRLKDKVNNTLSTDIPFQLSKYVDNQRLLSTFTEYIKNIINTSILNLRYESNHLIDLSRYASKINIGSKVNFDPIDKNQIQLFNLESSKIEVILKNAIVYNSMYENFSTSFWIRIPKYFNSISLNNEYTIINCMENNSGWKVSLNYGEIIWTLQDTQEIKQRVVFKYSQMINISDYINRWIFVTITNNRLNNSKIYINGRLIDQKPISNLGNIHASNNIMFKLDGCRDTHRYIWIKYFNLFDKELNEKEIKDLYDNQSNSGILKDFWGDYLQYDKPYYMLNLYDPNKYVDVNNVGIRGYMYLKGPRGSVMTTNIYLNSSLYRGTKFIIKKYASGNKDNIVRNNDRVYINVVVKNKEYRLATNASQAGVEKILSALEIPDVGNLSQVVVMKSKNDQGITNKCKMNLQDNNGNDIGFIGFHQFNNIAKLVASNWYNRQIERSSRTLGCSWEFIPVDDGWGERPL
# [2] = mouse, in vivo, ip, 2 mg/kg; for AUClast / Cmax / Vd: Balb/c
# in vivo = settings: Balb/c, mouse, ip, 2 mg/kg
# Chain of BoNTAe (P0DPI0 2-448 limits assumed): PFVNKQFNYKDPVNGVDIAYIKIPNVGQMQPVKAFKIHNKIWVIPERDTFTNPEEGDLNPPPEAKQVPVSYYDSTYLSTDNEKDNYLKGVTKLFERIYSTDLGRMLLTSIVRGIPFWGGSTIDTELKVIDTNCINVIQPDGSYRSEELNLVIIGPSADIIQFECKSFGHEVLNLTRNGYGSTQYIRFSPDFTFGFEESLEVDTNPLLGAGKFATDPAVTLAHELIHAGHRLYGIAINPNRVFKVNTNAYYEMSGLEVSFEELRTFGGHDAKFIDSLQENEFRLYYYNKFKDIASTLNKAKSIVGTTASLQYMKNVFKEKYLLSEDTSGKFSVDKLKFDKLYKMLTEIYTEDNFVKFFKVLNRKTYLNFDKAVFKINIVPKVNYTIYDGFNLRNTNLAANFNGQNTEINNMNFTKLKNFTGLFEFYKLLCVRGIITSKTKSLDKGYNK
SMILES,Ki (BoNTAe) [µM],inhibition at 1 µM (BoNTAe; inhibitor concentration 1 μM) [%],inhibition at 1 µM (BoNTAe) [%],further results
"NCCCCCCCCCCN(CCCCCCCCCCN)C(=O)c1ccc(-c2cc3ccc(C(=O)c4cc(CC(=O)NO)c(-c5cccc(O)c5)s4)cc3n2CCCCN)cc1 [Inhibitor E1c, 4-(1-(4-aminobutyl)-6-(4-(2-(hydroxyamino)-2-oxoethyl)-5-(3-hydroxyphenyl)thiophene-2-carbonyl)-1H-indol-2-yl)-N,N-bis(10-aminodecyl)benzamide]",0.26,75 ± 1,,
NCCCCCCCCCCCN(CCCCCCCCCCCN)C(=O)c1ccc(-c2cc3ccc(C(=O)c4cc(CC(=O)NO)c(-c5cccc(O)c5)s4)cc3n2CCCCN)cc1 [Inhibitor E1d],0.34,,68 ± 1,
NCCCCCCCCCCCCN(CCCCCCCCCCCCN)C(=O)c1ccc(-c2cc3ccc(C(=O)c4cc(CC(=O)NO)c(-c5cccc(O)c5)s4)cc3n2CCCCN)cc1 [Inhibitor E1e],0.36,,49,
"NCCCCCCN(CCCCCCN)C(=O)c1ccc(-c2cc3ccc(C(=NO)c4cc(CC(=O)NO)c(-c5cccc(O)c5)s4)cc3n2CCCCN)cc1 [Inhibitor E1f, 4-(1-(4-aminobutyl)-6-((4-(2-(hydroxyamino)-2-oxoethyl)-5-(3-hydroxyphenyl)thiophen-2-yl)(hydroxyimino)methyl)-1H-indol-2-yl)-N,N-bis(6-aminohexyl)benzamide]",,47 ± 1,,
NCCCCCN(CCCCCN)C(=O)c1ccc(-c2cc3ccc(C(=NO)c4cc(CC(=O)NO)c(-c5cccc(O)c5)s4)cc3n2CCCCN)cc1 [Inhibitor E1g],,,48,
NCCCCCCCCN(CCCCCCCCN)C(=O)c1ccc(-c2cc3ccc(C(=NO)c4cc(CC(=O)NO)c(-c5cccc(O)c5)s4)cc3n2CCCCN)cc1 [Inhibitor E1h],,,60 ± 1,
"NCCCCn1c(-c2ccccc2)c(F)c2ccc(C(=O)c3cc(CC(=O)NO)c(-c4ccc(O)cc4)s3)cc21 [Inhibitor E2, 2-(5-(1-(4-Aminobutyl)-3-fluoro-2-phenyl-1H-indole-6-carbonyl)-2-(4-hydroxyphenyl)thiophen-3-yl)-N-hydroxyacetamide]",,,,inhibition at 20 µM (BoNTAe): 82 ± 6%; proportion of survivors [1]: significantly (p<0.05) increased the proportion of survivors; AUClast [2]: 1386.4 ng·h/mL; Cmax [2]: 738.4 ng/mL; Vd [2]: 14.95 L/kg; T1/2 [2]: 6.5; Tmax (in vivo): 30 min
"NCCCCn1c(-c2ccccc2)c(F)c2ccc(C(=O)c3cc(CC(=O)NO)c(-c4cccc(N)c4)s3)cc21 [Inhibitor E3, 2-(5-(1-(4-aminobutyl)-3-fluoro-2-phenyl-1H-indole-6-carbonyl)-2-(3-aminophenyl)thiophen-3-yl)-N-hydroxyacetamide]",,,,inhibition at 20 µM (BoNTAe): 47 ± 1%; proportion of survivors [1]: significantly (p<0.05) increased the proportion of survivors; AUClast [2]: 1385.93 ng·h/mL; Cmax [2]: 255.99 ng/mL; Vd [2]: 12.84 L/kg; T1/2 [2]: 6.25; Tmax (in vivo): 60 min
NCCCCCCCN(CCCCCCCN)C(=O)c1cc(CCC(=O)NO)c(CCC(O)(c2ccccc2)c2ccccc2)n1Cc1ccccc1 [Inhibitor E4],0.76,52 ± 1,,
"NCCCCCCCN(CCCCCCCN)C(=O)c1cc(CCC(=O)NO)c(CCC(CO)(c2ccccc2)c2ccccc2)n1Cc1ccccc1 [Inhibitor E4b, N,N-Bis(7-aminoheptyl)-1-benzyl-5-(4-hydroxy-3,3-diphenylbutyl)-4-(3-(hydroxyamino)-3-oxopropyl)-1H-pyrrole-2-carboxamide]",0.21,79 ± 1,,
"O=C(CCc1cc(C(=O)Nc2cc(CCCCCCN3C(=O)c4ccccc4C3=O)c(OCCCCCCN3C(=O)c4ccccc4C3=O)c(CCCCCCN3C(=O)c4ccccc4C3=O)c2)n(Cc2ccccc2)c1C#CC(O)(c1ccccc1)c1ccccc1)NO [Inhibitor E6, 1-Benzyl-N-(3,5-bis(6-(1,3-dioxoisoindolin-2-yl)hexyl)-4-(6-(1,3-dioxoisoindolin-2-yl)hexyloxy)phenyl)-5-(3-hydroxy-3,3-diphenylprop-1-ynyl)-4-(3-(hydroxyamino)-3-oxopropyl)-1H-pyrrole-2-carboxamide trifluoroacetic acid salt]",,50 ± 2,,
"O=C(CCc1cc(C(=O)Nc2cc(CCCCCCN3C(=O)c4ccccc4C3=O)c(OCCCCCCCN3C(=O)c4ccccc4C3=O)c(CCCCCCN3C(=O)c4ccccc4C3=O)c2)n(Cc2ccccc2)c1C#CC(O)(c1ccccc1)c1ccccc1)NO [Inhibitor E6b, 1-Benzyl-N-(3,5-bis(6-(1,3-dioxoisoindolin-2-yl)hexyl)-4-(7-(1,3-dioxoisoindolin-2-yl)heptyloxy)phenyl)-5-(3-hydroxy-3,3-diphenylprop-1-ynyl)-4-(3-(hydroxyamino)-3-oxopropyl)-1H-pyrrole-2-carboxamide trifluoroacetic acid salt]",,59 ± 2,,
NCCCCCCCCCOc1c(CCCCCCN)cc(NC(=O)c2cc(CCC(=O)NO)c(CCC(N)(c3ccccc3)c3ccccc3)n2Cc2ccccc2)cc1CCCCCCN [Inhibitor E6c],,,55 ± 2,
